From US20240382474A1, “ENPP1 MODULATORS AND USES THEREOF” (Vir Biotechnology, Inc., priority 2021, published 2024)

Target: T1, human ENPP1 enzymatic domain (Homo sapiens, UniProt P22413)
T1 construct: recombinant protein containing the human ENPP1 enzymatic domain; purchased Viva Biotech
T1 sequence (P22413 191-591 limits assumed): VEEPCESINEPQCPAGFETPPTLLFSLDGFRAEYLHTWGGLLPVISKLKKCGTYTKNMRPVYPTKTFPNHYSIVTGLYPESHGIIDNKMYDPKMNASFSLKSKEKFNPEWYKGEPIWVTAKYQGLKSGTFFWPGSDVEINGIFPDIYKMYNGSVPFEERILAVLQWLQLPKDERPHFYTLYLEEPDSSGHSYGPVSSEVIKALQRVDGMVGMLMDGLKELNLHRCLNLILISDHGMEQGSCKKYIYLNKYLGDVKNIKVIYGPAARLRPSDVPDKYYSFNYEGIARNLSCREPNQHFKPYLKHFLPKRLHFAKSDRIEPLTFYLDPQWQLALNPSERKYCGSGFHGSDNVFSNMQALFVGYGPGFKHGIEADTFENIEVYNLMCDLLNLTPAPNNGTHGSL
Assay: ENPP1 Enzymatic Inhibition Assay (2′3′-cGAMP substrate, AMP-Glo luminescence)
Assay type: biochemical
Settings: 1 nM ENPP1, 20 uM 2′3′-cGAMP, 30 minutes at 37° C.
Experimental: The inhibition of ENPP1's phosphodiesterase activity were tested in a purified enzymatic assay using 2′3′-cyclic GAMP as a substrate which allowed for the release of cleaved AMP to be monitored using a luminescent assay.
Putative inhibitors were diluted in assay buffer (50 mM Tris pH 8.0, 250 mM NaCl, 0.5 mM CaCl2), 1 uM ZnCl2, 1% DMSO) and pre-incubated for 15 minutes at 37° C. with recombinant protein containing the human ENPP1 enzymatic domain (Viva Biotech). The enzymatic reaction was initiated upon addition of the 2′3′-cGAMP substrate. The final reaction concentrations were 1 nM ENPP1 and 20 uM 2′3′-cGAMP substrate in a 25 uL volume. Inhibitor concentrations ranged from 10 uM to 0.056 nM. The reaction was incubated for 30 minutes at 37° C.
After reacting for 30 minutes, the amount of AMP generated from the cleavage of 2′3′-cGAMP was determined using the Promega AMP-Glo method according to the manufacturer's protocol. First, AMP-Glo reagent 1 was added and incubated with the reaction mix for 1 hour at room temperature. Second, AMP Detection solution was added and the mixture was incubated for an additional hour. The luminescence of the mixture was read on a Perkin Elmer Ensight plate reader.
The maximum and minimum levels of ENPP1 activity were established using no inhibitor and no enzyme controls, respectively. The activity observed using ENPP1 inhibitors was quantified as the percent of activity relative to these controls. IC50 values were calculated using CDD Vault by fitting a sigmoidal variable slope nonlinear regression model to the data.

SMILES: CN[S@](=N)(=O)c1ccc(Oc2ccnc3cc(OC)ccc23)cc1 [Compound 2, (S)-4-((7-methoxyquinolin-4-yl)oxy)-N-methylbenzenesulfonimidamide]
- IC50: < 10 nM

SMILES: COc1ccc2c(Oc3ccc([S@](=N)(=O)NCCO)cc3)ccnc2c1 [Compound 3, (R)-N-(2-hydroxyethyl)-4-((7-methoxyquinolin-4-yl)oxy)benzenesulfonimidamide]
- IC50: 10 to 100 nM

SMILES: COc1ccc2c(Oc3ccc([S@@](=N)(=O)NCCO)cc3)ccnc2c1 [Compound 4, (S)-N-(2-hydroxyethyl)-4-((7-methoxyquinolin-4-yl)oxy)benzenesulfonimidamide]
- IC50: < 10 nM

SMILES: COc1ccc2c(Oc3ccc([S@](=N)(=O)N[C@@H](C)CO)cc3)ccnc2c1 [Compound 5, (R)-N-((S)-1-hydroxypropan-2-yl)-4-((7-methoxyquinolin-4-yl)oxy)benzenesulfonimidamide]
- IC50: 10 to 100 nM

SMILES: COc1ccc2c(Oc3ccc([S@@](=N)(=O)N[C@@H](C)CO)cc3)ccnc2c1 [Compound 6, (S)-N-((S)-1-hydroxypropan-2-yl)-4-((7-methoxyquinolin-4-yl)oxy)benzenesulfonimidamide]
- IC50: < 10 nM

SMILES: COc1ccc2c(Oc3ccc([S@](=N)(=O)NC[C@H](C)O)cc3)ccnc2c1 [Compound 7, (R)-N-((S)-2-hydroxypropyl)-4-((7-methoxyquinolin-4-yl)oxy)benzenesulfonimidamide]
- IC50: 10 to 100 nM

SMILES: COc1ccc2c(Oc3ccc([S@@](=N)(=O)NC[C@H](C)O)cc3)ccnc2c1 [Compound 8, (S)-N-((S)-2-hydroxypropyl)-4-((7-methoxyquinolin-4-yl)oxy)benzenesulfonimidamide]
- IC50: < 10 nM

SMILES: COc1ccc2c(Oc3ccc([S@](=N)(=O)NCC(C)(C)O)cc3)ccnc2c1 [Compound 9, (R)-N-(2-hydroxy-2-methylpropyl)-4-((7-methoxyquinolin-4-yl)oxy)benzenesulfonimidamide]
- IC50: 10 to 100 nM

SMILES: COc1ccc2c(Oc3ccc([S@@](=N)(=O)NCC(C)(C)O)cc3)ccnc2c1 [Compound 10, (S)-N-(2-hydroxy-2-methylpropyl)-4-((7-methoxyquinolin-4-yl)oxy)benzenesulfonimidamide]
- IC50: < 10 nM

SMILES: COc1ccc2c(Oc3ccc([S@](=N)(=O)N[C@H](C)CO)cc3)ccnc2c1 [Compound 11, (R)-N-((R)-1-hydroxypropan-2-yl)-4-((7-methoxyquinolin-4-yl)oxy)benzenesulfonimidamide]
- IC50: 10 to 100 nM

SMILES: COc1ccc2c(Oc3ccc([S@@](=N)(=O)N[C@H](C)CO)cc3)ccnc2c1 [Compound 12, (S)-N-((R)-1-hydroxypropan-2-yl)-4-((7-methoxyquinolin-4-yl)oxy)benzenesulfonimidamide]
- IC50: < 10 nM

SMILES: COc1ccc2c(Oc3ccc([S@](=N)(=O)NCC4CC4)cc3)ccnc2c1 [Compound 13, (R)-N-(cyclopropylmethyl)-4-((7-methoxyquinolin-4-yl)oxy)benzenesulfonimidamide]
- IC50: > 100 nM

SMILES: COc1ccc2c(Oc3ccc([S@@](=N)(=O)NCC4CC4)cc3)ccnc2c1 [Compound 14, (S)-N-(cyclopropylmethyl)-4-((7-methoxyquinolin-4-yl)oxy)benzenesulfonimidamide]
- IC50: < 10 nM

SMILES: CN[S@@](=N)(=O)c1ccc(Nc2ncnc3cc(OC)ccc23)cc1 [Compound 15, (R)-4-((7-methoxyquinazolin-4-yl)amino)-N-methylbenzenesulfonimidamide]
- IC50: 10 to 100 nM

SMILES: CN[S@](=N)(=O)c1ccc(Nc2ncnc3cc(OC)ccc23)cc1 [Compound 16, (S)-4-((7-methoxyquinazolin-4-yl)amino)-N-methylbenzenesulfonimidamide]
- IC50: < 10 nM

SMILES: CN[S@@](=N)(=O)c1ccc(Nc2ccnc3cc(OC)ccc23)cc1 [Compound 17, (R)-4-((7-methoxyquinolin-4-yl)amino)-N-methylbenzenesulfonimidamide]
- IC50: < 10 nM

SMILES: CN[S@](=N)(=O)c1ccc(Nc2ccnc3cc(OC)ccc23)cc1 [Compound 18, (S)-4-((7-methoxyquinolin-4-yl)amino)-N-methylbenzenesulfonimidamide]
- IC50: < 10 nM

SMILES: COc1ccc2c(Nc3ccc([S@](=N)(=O)NCC4CC4)cc3)ccnc2c1 [Compound 19, (R)-N-(cyclopropylmethyl)-4-((7-methoxyquinolin-4-yl)amino)benzenesulfonimidamide]
- IC50: < 10 nM

SMILES: COc1ccc2c(Nc3ccc([S@@](=N)(=O)NCC4CC4)cc3)ccnc2c1 [Compound 20, (S)-N-(cyclopropylmethyl)-4-((7-methoxyquinolin-4-yl)amino)benzenesulfonimidamide]
- IC50: < 10 nM

SMILES: COc1ccc2c(Nc3ccc([S@@](=N)(=O)NCC4CC4)cc3)c(C#N)cnc2c1 [Compound 21, (S)-4-((3-cyano-7-methoxyquinolin-4-yl)amino)-N-(cyclopropylmethyl)benzenesulfonimidamide]
- IC50: 10 to 100 nM

SMILES: N=[S@](=O)(NCC1CC1)c1ccc(Nc2ccnc3cc(OC(F)F)ccc23)cc1 [Compound 22, (S)-N-(cyclopropylmethyl)-4-((7-(difluoromethoxy)quinolin-4-yl)amino)benzenesulfonimidamide]
- IC50: < 10 nM

SMILES: COc1ccc2c(Oc3ccc([S@](=N)(=O)NC[C@@H](C)O)cc3)ccnc2c1 [Compound 25, (R)-N-((R)-2-hydroxypropyl)-4-((7-methoxyquinolin-4-yl)oxy)benzenesulfonimidamide]
- IC50: < 10 nM

SMILES: COc1ccc2c(Oc3ccc([S@](=N)(=O)N[C@H](C)c4ccnn4C)cc3)ccnc2c1 [Compound 27, (R)-4-((7-methoxyquinolin-4-yl)oxy)-N-((R)-1-(1-methyl-1H-pyrazol-5-yl)ethyl)benzenesulfonimidamide]
- IC50: 10 to 100 nM

SMILES: COc1ccc2c(Oc3ccc([S@@](=N)(=O)N[C@H](C)c4ccnn4C)cc3)ccnc2c1 [Compound 28, (S)-4-((7-methoxyquinolin-4-yl)oxy)-N-((R)-1-(1-methyl-1 H-pyrazol-5-yl)ethyl)benzenesulfonimidamide]
- IC50: < 10 nM

SMILES: COc1ccc2c(Oc3ccc([S@](=N)(=O)NC(C)c4ccn(C)n4)cc3)ccnc2c1 (stereo partly drawn) [Compound 29, (R)-4-((7-methoxyquinolin-4-yl)oxy)-N-(1-(1-methyl-1H-pyrazol-3-yl)ethyl)benzenesulfonimidamide]
- IC50: < 10 nM

SMILES: COc1ccc2c(Oc3ccc([S@@](=N)(=O)NC(C)c4ccn(C)n4)cc3)ccnc2c1 (stereo partly drawn) [Compound 30, (S)-4-((7-methoxyquinolin-4-yl)oxy)-N-(1-(1-methyl-1H-pyrazol-3-yl)ethyl)benzenesulfonimidamide]
- IC50: < 10 nM

SMILES: COc1ccc2c(Oc3ccc([S@](=N)(=O)NC[C@@H](O)CO)cc3)ccnc2c1 [Compound 31, (R)-N-((R)-2,3-dihydroxypropyl)-4-((7-methoxyquinolin-4-yl)oxy)benzenesulfonimidamide]
- IC50: 10 to 100 nM

SMILES: COc1ccc2c(Oc3ccc([S@@](=N)(=O)NC[C@@H](O)CO)cc3)ccnc2c1 [Compound 32, (S)-N-((R)-2,3-dihydroxypropyl)-4-((7-methoxyquinolin-4-yl)oxy)benzenesulfonimidamide]
- IC50: < 10 nM

SMILES: COc1ccc2c(Oc3ccc([S@](=N)(=O)NC[C@H](O)CO)cc3)ccnc2c1 [Compound 33, (R)-N-((S)-2,3-dihydroxypropyl)-4-((7-methoxyquinolin-4-yl)oxy)benzenesulfonimidamide]
- IC50: 10 to 100 nM
